Experimental data: PubChem BioAssay (NCI)
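Five compound concentrations were applied to cells in 96-well plates for 48 hours; endpoints were derived by simple linear interpolation of the resulting dose-response curve. TGI: concentration producing complete growth inhibition.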

Columns and labels:
Test in all cases: NCI-60 cell line screen, 48 h
786-0 renal = system: 786-0 renal
A549 NSCLC = system: A549 NSCLC
ACHN renal = system: ACHN renal
BT-549 breast = system: BT-549 breast
CAKI-1 renal = system: CAKI-1 renal
CCRF-CEM leukemia = system: CCRF-CEM leukemia
COLO 205 colon = system: COLO 205 colon
DU-145 prostate = system: DU-145 prostate
EKVX NSCLC = system: EKVX NSCLC
HCC-2998 colon = system: HCC-2998 colon
HCT-116 colon = system: HCT-116 colon
HCT-15 colon = system: HCT-15 colon
HL-60(TB) leukemia = system: HL-60(TB) leukemia
HOP-62 NSCLC = system: HOP-62 NSCLC
HOP-92 NSCLC = system: HOP-92 NSCLC
HS 578T breast = system: HS 578T breast
HT29 colon = system: HT29 colon
IGROV1 ovarian = system: IGROV1 ovarian
K-562 leukemia = system: K-562 leukemia
KM12 colon = system: KM12 colon
LOX IMVI melanoma = system: LOX IMVI melanoma
M14 melanoma = system: M14 melanoma
MALME-3M melanoma = system: MALME-3M melanoma
MCF7 breast = system: MCF7 breast
MDA-MB-231 breast = system: MDA-MB-231 breast
MDA-MB-435 = system: MDA-MB-435
MDA-N = system: MDA-N
MOLT-4 leukemia = system: MOLT-4 leukemia
NCI-H226 lung = system: NCI-H226 lung
NCI-H23 lung = system: NCI-H23 lung
NCI-H460 lung = system: NCI-H460 lung
NCI-H522 lung = system: NCI-H522 lung
OVCAR-3 ovarian = system: OVCAR-3 ovarian
OVCAR-4 ovarian = system: OVCAR-4 ovarian
OVCAR-5 ovarian = system: OVCAR-5 ovarian
PC-3 prostate = system: PC-3 prostate
RPMI-8226 leukemia = system: RPMI-8226 leukemia
RXF 393 renal = system: RXF 393 renal
SF-268 CNS = system: SF-268 CNS
SF-295 CNS = system: SF-295 CNS
SF-539 CNS = system: SF-539 CNS
SK-MEL-2 melanoma = system: SK-MEL-2 melanoma
SK-MEL-28 melanoma = system: SK-MEL-28 melanoma
SK-MEL-5 melanoma = system: SK-MEL-5 melanoma
SK-OV-3 ovarian = system: SK-OV-3 ovarian
SN12C renal = system: SN12C renal
SNB-19 CNS = system: SNB-19 CNS
SR leukemia = system: SR leukemia
SW-620 colon = system: SW-620 colon
T-47D breast = system: T-47D breast
TK-10 renal = system: TK-10 renal
U251 CNS = system: U251 CNS
UACC-257 melanoma = system: UACC-257 melanoma
UACC-62 melanoma = system: UACC-62 melanoma
UO-31 renal = system: UO-31 renal
NCI/ADR-RES ovarian = system: NCI/ADR-RES ovarian
OVCAR-8 ovarian = system: OVCAR-8 ovarian

## CSC(SC)=C(C#N)C(=O)Nc1ccc(C)cc1
786-0 renal
  TGI: > 100 µM
A549 NSCLC
  TGI: > 100 µM
ACHN renal
  TGI: > 100 µM
BT-549 breast
  TGI: > 100 µM
CAKI-1 renal
  TGI: > 100 µM
CCRF-CEM leukemia
  TGI: > 100 µM
COLO 205 colon
  TGI: > 100 µM
DU-145 prostate
  TGI: > 100 µM
EKVX NSCLC
  TGI: > 100 µM
HCC-2998 colon
  TGI: > 100 µM
HCT-116 colon
  TGI: > 100 µM
HCT-15 colon
  TGI: > 100 µM
HL-60(TB) leukemia
  TGI: > 100 µM
HOP-62 NSCLC
  TGI: > 100 µM
HOP-92 NSCLC
  TGI: 54.8 µM
HS 578T breast
  TGI: > 100 µM
HT29 colon
  TGI: > 100 µM
IGROV1 ovarian
  TGI: > 100 µM
K-562 leukemia
  TGI: > 100 µM
KM12 colon
  TGI: > 100 µM
LOX IMVI melanoma
  TGI: > 100 µM
M14 melanoma
  TGI: > 100 µM
MALME-3M melanoma
  TGI: > 100 µM
MCF7 breast
  TGI: > 100 µM
MDA-MB-231 breast
  TGI: > 100 µM
MDA-MB-435
  TGI: > 100 µM
MDA-N
  TGI: > 100 µM
MOLT-4 leukemia
  TGI: > 100 µM
NCI-H226 lung
  TGI: > 100 µM
NCI-H23 lung
  TGI: > 100 µM
NCI-H460 lung
  TGI: > 100 µM
NCI-H522 lung
  TGI: > 100 µM
OVCAR-3 ovarian
  TGI: > 100 µM
OVCAR-4 ovarian
  TGI: > 100 µM
OVCAR-5 ovarian
  TGI: > 100 µM
PC-3 prostate
  TGI: > 100 µM
RPMI-8226 leukemia
  TGI: > 100 µM
RXF 393 renal
  TGI: > 100 µM
SF-268 CNS
  TGI: > 100 µM
SF-295 CNS
  TGI: > 100 µM
SF-539 CNS
  TGI: > 100 µM
SK-MEL-2 melanoma
  TGI: > 100 µM
SK-MEL-28 melanoma
  TGI: > 100 µM
SK-MEL-5 melanoma
  TGI: > 100 µM
SK-OV-3 ovarian
  TGI: > 100 µM
SN12C renal
  TGI: > 100 µM
SNB-19 CNS
  TGI: > 100 µM
SR leukemia
  TGI: > 100 µM
SW-620 colon
  TGI: > 100 µM
T-47D breast
  TGI: > 100 µM
TK-10 renal
  TGI: > 100 µM
U251 CNS
  TGI: > 100 µM
UACC-257 melanoma
  TGI: > 100 µM
UACC-62 melanoma
  TGI: > 100 µM
UO-31 renal
  TGI: > 100 µM

## CC1=CC(O)(c2ccccc2)C(N2CCOCC2)N1O (stereo not given)
786-0 renal
  TGI: > 100 µM
A549 NSCLC
  TGI: > 100 µM
ACHN renal
  TGI: > 100 µM
BT-549 breast
  TGI: > 100 µM
CAKI-1 renal
  TGI: > 100 µM
CCRF-CEM leukemia
  TGI: > 100 µM
COLO 205 colon
  TGI: > 100 µM
EKVX NSCLC
  TGI: > 100 µM
HCC-2998 colon
  TGI: > 100 µM
HCT-116 colon
  TGI: > 100 µM
HCT-15 colon
  TGI: > 100 µM
HOP-62 NSCLC
  TGI: > 100 µM
HS 578T breast
  TGI: > 100 µM
HT29 colon
  TGI: > 100 µM
IGROV1 ovarian
  TGI: > 100 µM
K-562 leukemia
  TGI: > 100 µM
KM12 colon
  TGI: > 100 µM
LOX IMVI melanoma
  TGI: > 100 µM
M14 melanoma
  TGI: > 100 µM
MALME-3M melanoma
  TGI: > 100 µM
MCF7 breast
  TGI: > 100 µM
MDA-MB-231 breast
  TGI: > 100 µM
MDA-MB-435
  TGI: > 100 µM
MDA-N
  TGI: > 100 µM
MOLT-4 leukemia
  TGI: > 100 µM
NCI-H226 lung
  TGI: > 100 µM
NCI-H23 lung
  TGI: > 100 µM
NCI-H460 lung
  TGI: > 100 µM
NCI-H522 lung
  TGI: > 100 µM
NCI/ADR-RES ovarian
  TGI: > 100 µM
OVCAR-3 ovarian
  TGI: > 100 µM
OVCAR-4 ovarian
  TGI: > 100 µM
OVCAR-5 ovarian
  TGI: > 100 µM
OVCAR-8 ovarian
  TGI: > 100 µM
PC-3 prostate
  TGI: > 100 µM
RPMI-8226 leukemia
  TGI: > 100 µM
SF-268 CNS
  TGI: > 100 µM
SF-295 CNS
  TGI: > 100 µM
SF-539 CNS
  TGI: > 100 µM
SK-MEL-2 melanoma
  TGI: > 100 µM
SK-MEL-28 melanoma
  TGI: > 100 µM
SK-MEL-5 melanoma
  TGI: > 100 µM
SK-OV-3 ovarian
  TGI: > 100 µM
SN12C renal
  TGI: > 100 µM
SNB-19 CNS
  TGI: > 100 µM
SR leukemia
  TGI: > 100 µM
SW-620 colon
  TGI: > 100 µM
T-47D breast
  TGI: > 100 µM
TK-10 renal
  TGI: > 100 µM
U251 CNS
  TGI: > 100 µM
UACC-257 melanoma
  TGI: > 100 µM
UO-31 renal
  TGI: > 100 µM

## COc1ccc(C2SC(N)=Nc3c2c(C)nn3C(=O)c2ccccc2O)cc1 (stereo not given)
786-0 renal
  TGI: > 10 µM
A549 NSCLC
  TGI: > 10 µM
ACHN renal
  TGI: > 10 µM
BT-549 breast
  TGI: > 10 µM
CAKI-1 renal
  TGI: > 10 µM
CCRF-CEM leukemia
  TGI: > 10 µM
COLO 205 colon
  TGI: > 10 µM
EKVX NSCLC
  TGI: > 10 µM
HCC-2998 colon
  TGI: > 10 µM
HCT-116 colon
  TGI: > 10 µM
HCT-15 colon
  TGI: > 10 µM
HL-60(TB) leukemia
  TGI: 5.21 µM
HOP-62 NSCLC
  TGI: > 10 µM
HOP-92 NSCLC
  TGI: > 10 µM
HS 578T breast
  TGI: > 10 µM
HT29 colon
  TGI: > 10 µM
IGROV1 ovarian
  TGI: > 10 µM
K-562 leukemia
  TGI: 3.85 µM
KM12 colon
  TGI: > 10 µM
LOX IMVI melanoma
  TGI: > 10 µM
M14 melanoma
  TGI: > 10 µM
MALME-3M melanoma
  TGI: > 10 µM
MCF7 breast
  TGI: > 10 µM
MDA-MB-231 breast
  TGI: 9.79 µM
MDA-MB-435
  TGI: > 10 µM
MDA-N
  TGI: > 10 µM
MOLT-4 leukemia
  TGI: > 10 µM
NCI-H226 lung
  TGI: > 10 µM
NCI-H23 lung
  TGI: > 10 µM
NCI-H460 lung
  TGI: > 10 µM
NCI-H522 lung
  TGI: > 10 µM
NCI/ADR-RES ovarian
  TGI: > 10 µM
OVCAR-3 ovarian
  TGI: 7.48 µM
OVCAR-4 ovarian
  TGI: > 10 µM
OVCAR-5 ovarian
  TGI: > 10 µM
OVCAR-8 ovarian
  TGI: > 10 µM
PC-3 prostate
  TGI: > 10 µM
RPMI-8226 leukemia
  TGI: 6.99 µM
RXF 393 renal
  TGI: > 10 µM
SF-268 CNS
  TGI: > 10 µM
SF-295 CNS
  TGI: > 10 µM
SF-539 CNS
  TGI: 0.628 µM
SK-MEL-2 melanoma
  TGI: > 10 µM
SK-MEL-28 melanoma
  TGI: > 10 µM
SK-MEL-5 melanoma
  TGI: > 10 µM
SK-OV-3 ovarian
  TGI: > 10 µM
SN12C renal
  TGI: > 10 µM
SNB-19 CNS
  TGI: > 10 µM
SW-620 colon
  TGI: > 10 µM
T-47D breast
  TGI: > 10 µM
U251 CNS
  TGI: > 10 µM
UACC-257 melanoma
  TGI: > 10 µM
UACC-62 melanoma
  TGI: > 10 µM
